The text below walks through data of ChEMBL document CHEMBL1158421, “Inhibitory effect of a dimerization-arm-mimetic peptide on EGF receptor activation” (Bioorg Med Chem Lett, 2009).

Molecules are shown by their SMILES. The source made the active and inactive calls. The calls are words filed in the database; no cut-off is given here. Where a SMILES comes first, the peptide text is derived from it. Bridges are numbered along the chain shown (N, C = ends).

Holding throughout (format): cell-based
Common to all, as to conditions: A-431

The target of assay [1] is Epidermal growth factor receptor (Homo sapiens) (UniProt P00533). The assay can be described thus: Reduction in EGF-induced dimerization of human EGFR in A431 cells at 0.01 to 1 uM preincubated for 30 mins before EGF challenge by SDS-PAGE.
Epidermal growth factor receptor (Homo sapiens), sequence (P00533 whole entry): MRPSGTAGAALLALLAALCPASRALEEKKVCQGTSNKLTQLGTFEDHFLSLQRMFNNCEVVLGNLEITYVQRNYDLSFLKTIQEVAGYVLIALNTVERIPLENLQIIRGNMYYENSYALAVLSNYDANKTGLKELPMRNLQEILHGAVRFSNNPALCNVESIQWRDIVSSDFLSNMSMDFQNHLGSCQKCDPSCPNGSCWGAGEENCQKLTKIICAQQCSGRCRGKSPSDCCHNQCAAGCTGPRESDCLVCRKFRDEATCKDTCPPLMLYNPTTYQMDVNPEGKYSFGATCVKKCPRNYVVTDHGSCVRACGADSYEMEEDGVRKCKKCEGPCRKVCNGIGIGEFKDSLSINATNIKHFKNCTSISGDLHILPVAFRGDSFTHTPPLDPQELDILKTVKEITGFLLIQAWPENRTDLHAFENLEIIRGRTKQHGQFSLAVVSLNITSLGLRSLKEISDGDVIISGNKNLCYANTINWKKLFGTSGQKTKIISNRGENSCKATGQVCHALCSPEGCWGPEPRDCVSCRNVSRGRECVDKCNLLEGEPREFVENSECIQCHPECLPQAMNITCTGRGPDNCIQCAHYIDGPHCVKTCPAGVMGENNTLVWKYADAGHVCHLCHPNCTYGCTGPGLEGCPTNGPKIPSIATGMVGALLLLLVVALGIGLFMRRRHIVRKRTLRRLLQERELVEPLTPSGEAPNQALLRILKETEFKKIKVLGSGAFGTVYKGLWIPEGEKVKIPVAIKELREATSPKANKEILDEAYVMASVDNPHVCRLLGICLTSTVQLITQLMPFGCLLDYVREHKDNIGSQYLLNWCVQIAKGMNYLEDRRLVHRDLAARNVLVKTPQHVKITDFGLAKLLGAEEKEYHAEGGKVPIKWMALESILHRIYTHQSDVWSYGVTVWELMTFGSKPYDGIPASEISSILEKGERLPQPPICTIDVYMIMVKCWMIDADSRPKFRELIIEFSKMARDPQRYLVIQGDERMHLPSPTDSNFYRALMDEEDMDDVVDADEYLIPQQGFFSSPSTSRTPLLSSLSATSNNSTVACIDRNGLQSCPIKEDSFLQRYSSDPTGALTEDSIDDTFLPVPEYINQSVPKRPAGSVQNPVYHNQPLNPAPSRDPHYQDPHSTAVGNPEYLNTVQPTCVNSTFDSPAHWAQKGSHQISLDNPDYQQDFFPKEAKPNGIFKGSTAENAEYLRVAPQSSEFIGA
The target is the same in assay [2]. The assay can be described thus: Inhibition of EGF-stimulated human EGFR in intact A431 cells assessed as suppression of residual autophosphorylation at 10 uM preincubated for 3 hrs before EGF challenge by SDS-PAGE relative to control.
Assay [3] shares this target. Put plainly: Inhibition of EGF-stimulated human EGFR in intact A431 cells assessed as suppression of residual autophosphorylation at 0.1 uM preincubated for 3 hrs before EGF challenge by SDS-PAGE relative to control.
For assay [4] the target is unchanged. The assay can be described thus: Inhibition of EGF-induced dimerization of human EGFR in A431 cells at >1 uM preincubated for 30 mins before EGF challenge by SDS-PAGE.
For assay [5] the target is unchanged. The assay can be described thus: Reduction in EGF-induced dimerization of human EGFR in A431 cells at 1 uM preincubated for 30 mins before EGF challenge by SDS-PAGE relative to control. Set-up: scale not given: the % may be the effect or the level left.
Assay [6] has the same target. Put plainly: Inhibition of EGF-stimulated human EGFR in intact A431 cells assessed as suppression of residual autophosphorylation at 1 uM preincubated for 3 hrs before EGF challenge by SDS-PAGE relative to control.
Assay [7] has the same target. The assay can be described thus: Reduction in EGF-induced dimerization of human EGFR in A431 cells preincubated for 30 mins before EGF challenge by SDS-PAGE.

`CSCC[C@H](NC(=O)[C@H](CCC(N)=O)NC(=O)[C@H](Cc1ccc(O)cc1)NC(=O)[C@@H](NC(=O)[C@@H](NC(=O)[C@@H]1CCCN1C(=O)[C@H](CC(N)=O)NC(=O)[C@H](Cc1ccc(O)cc1)NC(=O)[C@@H](N)CS)[C@@H](C)O)[C@@H](C)O)C(=O)N[C@@H](CS)C(=O)O` (H-CYNPTTYQMC-OH): the outcome in assay [1] was inactive.

On to `CSCC[C@@H]1NC(=O)[C@H](CCC(N)=O)NC(=O)[C@H](Cc2ccc(O)cc2)NC(=O)[C@H]([C@@H](C)O)NC(=O)[C@H]([C@@H](C)O)NC(=O)[C@@H]2CCCN2C(=O)[C@H](CC(N)=O)NC(=O)[C@H](Cc2ccc(O)cc2)NC(=O)[C@@H](N)CSSC[C@@H](C(=O)O)NC1=O` (H-CYNPTTYQMC-OH; disulfide 1-10), for which the Activity in assay [2] is 30%; in assay [3] it was 61%; in assay [5] it was under 80%; in assay [6] it was 51%; in assay [7], “Dose-dependent effect”. Further, the result in assay [4] was inactive.
